Measured values as given in PMC3419814 (Bioorganic & medicinal chemistry, 2012).

Test: logP from HPLC retention times
Format: physicochemical

Structure (SMILES)	chromatographic logP
COc1ccc(Cl)cc1Nc1nc(-c2sc(NC(=O)C(C)(C)C)nc2C)c(-n2cc(CO)nn2)s1 [compound 13, N-(2-(5-Chloro-2-methoxyphenylamino)-5-(4-(hydroxyl-methyl)-1H-1,2,3-triazol-1-yl)-4′-methyl-4,5′-bithiazol-2′-yl)pivalamide]	4.8 to 5.5
COC(=O)c1cn(-c2sc(Nc3cc(Cl)ccc3OC)nc2-c2sc(NC(=O)C(C)(C)C)nc2C)nn1 [compound 14, Methyl 1-(2-(5-chloro-2-methoxyphenylamino)-4′-methyl-2′-pivalamido-4,5′-bithiazol-5-yl)-1H-1,2,3-triazole-4-carboxylate]	4.8 to 5.5
COc1ccc(Cl)cc1Nc1nc(-c2sc(NC(=O)C(C)(C)C)nc2C)c(-n2cc(C(=O)O)nn2)s1 [compound 15, 1-(2-(5-Chloro-2-methoxyphenylamino)-4′-methyl-2′-pivalamido-4,5′-bithiazol-5-yl)-1H-1,2,3-triazole-4-carboxylic acid]	4.8 to 5.5
